Assay results from article PMC8131363 (Scientific Reports, 2021).

target: T1, cCaSR (Felis catus, UniProt C7FF08); test: not given; conditions: Supplementary Table I, agonist assay, dash = no activity
T1 sequence (C7FF08 1-1081): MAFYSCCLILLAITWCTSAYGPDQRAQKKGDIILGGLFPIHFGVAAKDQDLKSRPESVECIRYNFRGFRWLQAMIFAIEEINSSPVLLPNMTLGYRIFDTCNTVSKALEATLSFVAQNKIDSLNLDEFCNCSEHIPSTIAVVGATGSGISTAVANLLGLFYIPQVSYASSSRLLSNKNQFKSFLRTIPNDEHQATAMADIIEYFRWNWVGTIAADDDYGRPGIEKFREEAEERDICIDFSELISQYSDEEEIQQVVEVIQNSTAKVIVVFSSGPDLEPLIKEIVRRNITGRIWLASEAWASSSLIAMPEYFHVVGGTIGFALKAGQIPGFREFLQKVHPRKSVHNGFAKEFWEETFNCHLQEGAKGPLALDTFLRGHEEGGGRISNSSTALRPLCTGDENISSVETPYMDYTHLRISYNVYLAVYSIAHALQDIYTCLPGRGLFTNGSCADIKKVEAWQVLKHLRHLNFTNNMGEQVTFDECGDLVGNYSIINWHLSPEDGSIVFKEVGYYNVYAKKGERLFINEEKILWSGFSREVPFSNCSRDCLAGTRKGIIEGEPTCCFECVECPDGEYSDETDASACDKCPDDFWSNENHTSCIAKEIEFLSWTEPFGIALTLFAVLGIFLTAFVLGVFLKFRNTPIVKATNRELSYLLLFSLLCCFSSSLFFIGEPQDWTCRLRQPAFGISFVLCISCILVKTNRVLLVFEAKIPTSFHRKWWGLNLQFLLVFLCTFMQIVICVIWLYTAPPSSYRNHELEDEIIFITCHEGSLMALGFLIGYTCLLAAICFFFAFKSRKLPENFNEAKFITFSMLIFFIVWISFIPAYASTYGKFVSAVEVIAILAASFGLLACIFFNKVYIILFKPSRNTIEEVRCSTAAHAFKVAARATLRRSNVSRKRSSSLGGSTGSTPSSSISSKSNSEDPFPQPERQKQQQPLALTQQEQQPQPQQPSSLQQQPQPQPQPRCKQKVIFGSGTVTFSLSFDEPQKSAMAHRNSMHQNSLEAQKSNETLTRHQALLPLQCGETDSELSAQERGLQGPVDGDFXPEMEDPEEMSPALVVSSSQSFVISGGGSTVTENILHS

Row | Molecule | EC50 Ago (M)
1 | CC1(C)N[C@H](C(=O)O)Cc2c1[nH]c1ccccc21 [S-1,1-dimethyl-2,3,4,9-tetrahydro-1H-pyrido[3,4-b]indole-3-carboxylic acid] | -
2 | NC[C@H](N)C(=O)O [S-2,3-diaminopropanoic acid] | -
3 | O=C(O)[C@@H]1CNCCN1 [S-piperazine-2-carboxylic acid] | -
4 | O.O.O.O.O.O.O.O.O.O.O=P([O-])([O-])OP(=O)([O-])[O-].[Na+].[Na+].[Na+].[Na+] [Sodium pyrophosphate tetrabasic decahydrate] | -
5 | OC[C@H]1O[C@H](O[C@]2(CCl)O[C@H](CCl)[C@@H](O)[C@@H]2O)[C@H](O)[C@@H](O)[C@H]1Cl [Sucralose] | -
6 | OC[C@H]1O[C@@](CO)(O[C@H]2O[C@H](CO)[C@@H](O)[C@H](O)[C@H]2O)[C@@H](O)[C@@H]1O [Sucrose] | -
7 | NCCS(=O)(=O)O [Taurine] | -
8 | Cc1ccc(C2(CCNC(C)c3ccc(Cl)cc3)CCOC(C)(C)C2)cc1 (stereo not shown) [Vitas M Labs Express Pick - STK530456] | -
9 | NCCCC[C@H](NC(=O)C[C@H](N)C(=O)O)C(=O)O [β-Asp-Lys] | -
10 | CCOC(=O)CNC(=O)[C@H](CS)NC(=O)CC[C@H](N)C(=O)O [γ-Glu-Cys-Gly-Oet] | -
11 | N[C@@H](CCC(=O)NCC(=O)NCC(=O)O)C(=O)O [γ-Glu-Gly-Gly] | -
12 | N[C@@H](CCC(=O)N[C@@H](Cc1cnc[nH]1)C(=O)O)C(=O)O [γ-Glu-His] | -
13 | N[C@@H](CCCCNC(=O)CC[C@H](N)C(=O)O)C(=O)O [γ-Glu-Lys] | -
14 | Poly-L-histidine | -

same assay, conditions: agonist assay, stable inducible cCaSR line; > 0.01 M = maximal response not reached

Row | Molecule | EC50 [µM]
15 | O=P(O)(O)CP(=O)(O)O [Methylenediphosphonic acid] | 1290
16 | O=S(=O)([O-])C(F)(F)F.O=S(=O)([O-])C(F)(F)F.O=S(=O)([O-])C(F)(F)F.[Pr+3] [Pr^3+, Praseodymium(III) trifluoromethanesulfonate] | 398
17 | CC(=O)[O-].CC(=O)[O-].CC(=O)[O-].O.[Tb+3] [Tb^3+, Terbium(III) acetate hydrate] | 175

same assay, conditions: read-out: EC50 Ago; Supplementary Table I, agonist assay; > 0.01 M = maximal response not reached

Row | Molecule | EC50 [µM]
18 | O=P(O)(O)CP(=O)(O)O [Methylenediphosphonic acid] | 1290
19 | O=S(=O)([O-])C(F)(F)F.O=S(=O)([O-])C(F)(F)F.O=S(=O)([O-])C(F)(F)F.[Pr+3] [Pr^3+, Praseodymium(III) trifluoromethanesulfonate] | 398
20 | CC(=O)[O-].CC(=O)[O-].CC(=O)[O-].O.[Tb+3] [Tb^3+, Terbium(III) acetate hydrate] | 175

same assay, conditions: read-out: cCaSR activity; agonist assay, stable inducible cCaSR line, at least three wells

Row | Molecule | EC50 [µM]
21 | O=S(=O)([O-])C(F)(F)F.O=S(=O)([O-])C(F)(F)F.O=S(=O)([O-])C(F)(F)F.[Pr+3] [Pr^3+, Praseodymium(III) trifluoromethanesulfonate] | < 1000
22 | [Sr+2] [Sr^2+] | > 10000
23 | CC(=O)[O-].CC(=O)[O-].CC(=O)[O-].O.[Tb+3] [Tb^3+, Terbium(III) acetate hydrate] | < 1000
24 | Poly-L-lysine | > 10000

target: T1, cCaSR; test: cell-based; conditions: EC50 (M), agonist assay, stable inducible cCaSR line; > 0.01 M = maximal response not reached

Row | Molecule | EC50 [M]
25 | N[C@@H](CCC(=O)N[C@@H](CSCc1c[nH]c2ccccc12)C(=O)NCC(=O)O)C(=O)O [3-Glutathionyl-S-methylindole] | 0.00374
26 | CNC(C)C1CCC(N)C(OC2C(N)CC(N)C(OC3OCC(C)(O)C(NC)C3O)C2O)O1 (stereo not shown) [Gentamicin, reference compound] | 0.000989

same assay, conditions: EC50 Ago (M), Supplementary Table I, agonist assay; > 0.01 M = maximal response not reached

Row | Molecule | EC50 [M]
27 | N[C@@H](CCC(=O)N[C@@H](CSCc1c[nH]c2ccccc12)C(=O)NCC(=O)O)C(=O)O [3-Glutathionyl-S-methylindole] | 0.00375
28 | CNC(C)C1CCC(N)C(OC2C(N)CC(N)C(OC3OCC(C)(O)C(NC)C3O)C2O)O1 (stereo not shown) [Gentamicin, reference compound] | 0.00099

same assay, conditions: cCaSR activity

Row | Molecule | EC50 [M]
29 | N[C@@H](CP(=O)(O)O)C(=O)O [L-( +)-2-Amino-3-phosphonopropionic acid, L-(+)-2-Amino-3-phosphonopropionic acid] | > 0.01

same assay, conditions: cCaSR activity, agonist assay, stable inducible cCaSR line, at least three wells

Row | Molecule | EC50 [M]
30 | CC[C@H](NC(=O)CC[C@H](N)C(=O)O)C(=O)O | > 0.01
31 | NC(CC(F)C(=O)O)C(=O)O (racemic) [4-Fluoro-DL-glutamic acid] | > 0.01
32 | NC(CC(C(=O)O)C(=O)O)C(=O)O (racemic) [γ-Carboxy-DL-glutamic acid] | > 0.01
33 | NC(CCP(=O)(O)O)C(=O)O (stereo not shown) [2-Amino-4-phosphonobutyric acid] | > 0.01
34 | N[C@@H](C[C@H](O)C(=O)O)C(=O)O [2S,4S-g-Hydroxy-L-glutamic acid] | > 0.01
35 | N[C@@H](CCC(=O)N[C@@H](CSCc1c[nH]c2ccccc12)C(=O)NCC(=O)O)C(=O)O [3-Glutathionyl-S-methylindole] | 0.001 to 0.01
36 | N[C@@H](CCCC(=O)O)C(=O)O [L-2-Aminoadipic acid] | > 0.01

target: T1, cCaSR; test: cCaSR PAM luminescence assay, double injection with 0.5 mM CaCl2, HEK293/T-REx/natClytin-cCaSR; conditions: not given

Row | Molecule | EC50 PAM (M)
37 | N[C@@H](CP(=O)(O)O)C(=O)O [L-( +)-2-Amino-3-phosphonopropionic acid, L-(+)-2-Amino-3-phosphonopropionic acid] | -

same assay, conditions: Supplementary Table I, PAM assay, dash = no activity

Row | Molecule | EC50 PAM (M)
38 | CC[C@H](NC(=O)CC[C@H](N)C(=O)O)C(=O)O | -
39 | NC(CC(F)C(=O)O)C(=O)O (racemic) [4-Fluoro-DL-glutamic acid] | -
40 | NC(CC(C(=O)O)C(=O)O)C(=O)O (racemic) [γ-Carboxy-DL-glutamic acid] | -
41 | NC(CCP(=O)(O)O)C(=O)O (stereo not shown) [2-Amino-4-phosphonobutyric acid] | -
42 | N[C@@H](C[C@H](O)C(=O)O)C(=O)O [2S,4S-g-Hydroxy-L-glutamic acid] | -
43 | N[C@@H](CCC(=O)N[C@@H](CSCc1c[nH]c2ccccc12)C(=O)NCC(=O)O)C(=O)O [3-Glutathionyl-S-methylindole] | -
44 | CNC(C)C1CCC(N)C(OC2C(N)CC(N)C(OC3OCC(C)(O)C(NC)C3O)C2O)O1 (stereo not shown) [Gentamicin, reference compound] | -
45 | N[C@@H](CCCC(=O)O)C(=O)O [L-2-Aminoadipic acid] | -
46 | O=P(O)(O)CP(=O)(O)O [Methylenediphosphonic acid] | -
47 | O=S(=O)([O-])C(F)(F)F.O=S(=O)([O-])C(F)(F)F.O=S(=O)([O-])C(F)(F)F.[Pr+3] [Pr^3+, Praseodymium(III) trifluoromethanesulfonate] | -
48 | CC1(C)N[C@H](C(=O)O)Cc2c1[nH]c1ccccc21 [S-1,1-dimethyl-2,3,4,9-tetrahydro-1H-pyrido[3,4-b]indole-3-carboxylic acid] | -
49 | NC[C@H](N)C(=O)O [S-2,3-diaminopropanoic acid] | -
50 | O=C(O)[C@@H]1CNCCN1 [S-piperazine-2-carboxylic acid] | -
51 | O.O.O.O.O.O.O.O.O.O.O=P([O-])([O-])OP(=O)([O-])[O-].[Na+].[Na+].[Na+].[Na+] [Sodium pyrophosphate tetrabasic decahydrate] | -
52 | [Sr+2] [Sr^2+] | -
53 | OC[C@H]1O[C@H](O[C@]2(CCl)O[C@H](CCl)[C@@H](O)[C@@H]2O)[C@H](O)[C@@H](O)[C@H]1Cl [Sucralose] | -
54 | OC[C@H]1O[C@@](CO)(O[C@H]2O[C@H](CO)[C@@H](O)[C@H](O)[C@H]2O)[C@@H](O)[C@@H]1O [Sucrose] | -
55 | NCCS(=O)(=O)O [Taurine] | -
56 | CC(=O)[O-].CC(=O)[O-].CC(=O)[O-].O.[Tb+3] [Tb^3+, Terbium(III) acetate hydrate] | -
57 | NCCCC[C@H](NC(=O)C[C@H](N)C(=O)O)C(=O)O [β-Asp-Lys] | -
58 | CCOC(=O)CNC(=O)[C@H](CS)NC(=O)CC[C@H](N)C(=O)O [γ-Glu-Cys-Gly-Oet] | -
59 | N[C@@H](CCC(=O)NCC(=O)NCC(=O)O)C(=O)O [γ-Glu-Gly-Gly] | -
60 | N[C@@H](CCC(=O)N[C@@H](Cc1cnc[nH]1)C(=O)O)C(=O)O [γ-Glu-His] | -
61 | N[C@@H](CCCCNC(=O)CC[C@H](N)C(=O)O)C(=O)O [γ-Glu-Lys] | -
62 | Poly-L-histidine | -
63 | Poly-L-lysine | -

same assay, conditions: read-out: EC50 PAM; Supplementary Table I, positive allosteric modulator, presence of Ca2+

Row | Molecule | EC50 [µM]
64 | Cc1ccc(C2(CCNC(C)c3ccc(Cl)cc3)CCOC(C)(C)C2)cc1 (stereo not shown) [Vitas M Labs Express Pick - STK530456] | 26.1
